The values below come from ChEMBL document CHEMBL1128553, “Synthesis of 1,4,7,8,9,10-hexahydro-9-methyl-6-nitropyrido[3,4-f]- quinoxaline-2,3-dione and related quinoxalinediones: characterization of alpha-amino-3-hydroxy-5-methyl-4-isoxazolepropionic acid (and N-methyl-D-aspartate) receptor and anticonvulsant activity” (J Med Chem, 1995).

Where only a bound is given, the exact number is not on record here.

Experiment [1] addresses Glutamate receptor ionotropic, NMDA 1 (Rattus norvegicus, UniProt P35439). The experiment in a line: Affinity for N-methyl-D-aspartate glutamate receptor 1 in rat brain synaptic membranes, using [3H]glycine as radioligand. The format is cell membranes.
Experiment [2] addresses T1, Glutamate receptor ionotropic, AMPA (Rattus norvegicus, UniProt P19490+P19491+P19492+P19493).
Description: Inhibition of Ionotropic glutamate receptor AMPA induced depolarization in rat cortical wedge by application of 10 uM of AMPA
For experiment [3], the target named is T1, Glutamate receptor ionotropic, AMPA. This is another data set of the same source.
Description: Binding affinity was determined against ionotropic glutamate receptor AMPA in rat brain synaptic membranes using [3H]AMPA as radioligand
The species entered for experiment [4] is Rattus norvegicus. The experiment is described as follows: Concentration of compound that inhibits by 50% depolarizations induced by 10 uM AMPA. The class given is functional.
The species named for experiment [5] is Rattus norvegicus. The experiment in a line: Concentration of compound that inhibits by 50% LDH released by 24 hr application of 100 uM AMPA. The format is functional, organism-based.
Experiment [6] has as its target Glutamate receptor ionotropic, kainate. The experiment is described as follows: Binding affinity for the ionotropic glutamate receptor kainate in rat brain synaptic membranes using [3H]kainate as radioligand. The format is cell membranes.
Experiment [7] concerns the target T1, Glutamate receptor ionotropic, AMPA. The source holds these as a separate data set.
Description: Antagonistic activity against Ionotropic glutamate receptor AMPA induced LDH release in cultured rat cortical neurons after 24 hr 100 uM AMPA
Experiment [8] concerns the target Glutamate receptor ionotropic, kainate. The experiment in a line: Antagonistic activity against Ionotropic glutamate receptor kainate induced LDH release in cultured cortical neurons in rat after 24 hr application of 500 uM of kainate. The format is functional.
The species entered for experiment [9] is Rattus norvegicus. The experiment in a line: Concentration of compound that inhibits by 50% LDH released by 24 hr application of 500 uM kainate. The format is functional, organism-based. (LDH leaks from cells whose membrane has failed.)

Take `CCC(C)N1CCc2c([N+](=O)[O-])cc3[nH]c(=O)c(=O)[nH]c3c2C1` (configuration not stated): the IC50 (usually the point on the concentration scale where inhibition reaches its midpoint) in [1] is 0.93 µM; in experiment [2] it was 1.6 µM; in experiment [3], 0.28 µM; in experiment [4] it was 1.6 µM; in [5], 15 µM; in experiment [6] it was 0.85 µM. Besides, the IC50 in experiment [7] worked out at 15 µM.
For the compound `CCCCCCCN1CCc2c(c([N+](=O)[O-])cc3[nH]c(=O)c(=O)[nH]c23)C1`, the IC50 is above 10 µM in [1], 5.8 µM in experiment [3] and 79 µM in experiment [6].
With `CN1CCc2c(N)cc3[nH]c(=O)c(=O)[nH]c3c2C1`, the IC50 in experiment [1] is above 100 µM; in experiment [3], 100 µM; in experiment [6], 28 µM.
`CC(C)CCN1CCc2c([N+](=O)[O-])cc3[nH]c(=O)c(=O)[nH]c3c2C1`: the IC50 in experiment [1] worked out at 0.86 µM; in experiment [8] it was 7 µM; in [9], 7 µM; in experiment [3], 0.11 µM; in experiment [5], 5 µM; in experiment [6] it was 1.18 µM. Moreover, the IC50 in experiment [7] amounted to 5 µM.
Regarding `CCN1CCc2ccc3[nH]c(=O)c(=O)[nH]c3c2C1`, the IC50 in [3] was determined as 41 µM; in experiment [6], 20 µM.
For `CCC(C)N1CCc2ccc3nc(O)c(O)nc3c2C1` (configuration not stated) the same measures were above 100 µM and 21 µM.
Turning to `Oc1nc2ccc3c(c2nc1O)CCNC3`, the IC50 came to 12 µM in experiment [3] and 17 µM in experiment [6].
For `CN1CCc2c(C#N)cc3[nH]c(=O)c(=O)[nH]c3c2C1`, the 50% inhibitory concentration (IC50) in experiment [1] amounted to 1.4 µM; in [3], 1.36 µM; in experiment [6] it was 2.4 µM.
Regarding `CC(C)CCN1CCc2ccc3nc(O)c(O)nc3c2C1`, the values for the IC50 in [3] and in [6] were 123 µM and 25 µM, respectively.
For `CCN1CCc2c(ccc3nc(O)c(O)nc23)C1` the same measures were 21 µM and 37 µM.
For the compound `CCC(C)N1CCc2c(Br)cc3nc(O)c(O)nc3c2C1` (configuration not stated), the IC50 was above 10 µM in experiment [1], 2.5 µM in experiment [3] and 0.43 µM in experiment [6].
For `O=c1[nH]c2cc(Br)c3c(c2[nH]c1=O)CNCC3` the same measures were 1 µM, 3.5 µM and 1.5 µM.
In the case of `CC(C)N1CCc2c([N+](=O)[O-])cc3[nH]c(=O)c(=O)[nH]c3c2C1`, the half-inhibitory concentration (IC50) in experiment [1] came out at 0.93 µM; in [8] it was 7 µM; in experiment [9] it was 7 µM; in [2], 1.5 µM; in experiment [3], 0.153 µM; in [4] it was 1.5 µM. The values for the 50% inhibitory concentration (IC50) in experiment [5], in [6] and in [7] were 6 µM, 0.29 µM and 6 µM, respectively.
Compound `CCOC(=O)c1nc2cc(Br)c3c(c2nc1O)CCN(C)C3` had an IC50 in experiment [3] above 100 µM.
For `CN1CCc2c(ccc3[nH]c(=O)c(=O)[nH]c23)C1`, the values for the IC50 in experiment [1], in experiment [3] and in experiment [6] were above 100 µM, 6.5 µM and 29.2 µM, respectively.
Regarding `CCN1CCc2c(Br)cc3[nH]c(=O)c(=O)[nH]c3c2C1`, the IC50 in experiment [1] was 0.62 µM; in experiment [3], 0.74 µM; in experiment [6] it was 6.4 µM.
As for `CCC(C)CN1CCc2ccc3nc(O)c(O)nc3c2C1` (configuration not stated), in [3], the IC50 is above 100 µM.
Same read-out and setting: the figure for `CN1CCCc2c1ccc1nc(O)c(O)nc21` is 24 µM.
Turning to `CN1CCc2c(c(Br)c([N+](=O)[O-])c3[nH]c(=O)c(=O)[nH]c23)C1`, the IC50 is above 10 µM in [1], 1.9 µM in [3] and 5.7 µM in [6].
With `COC(=O)c1cc2nc(O)c(O)nc2c2c1CN(C)CC2`, the IC50 in experiment [3] turned out to be 44 µM; in experiment [6], 22 µM.
For `CCCN1CCc2c(ccc3[nH]c(=O)c(=O)[nH]c23)C1` the same measures were 18 µM and 23 µM.
`O=c1[nH]c2cc(Br)c3c(c2[nH]c1=O)CCCN3` displayed an IC50 in experiment [3] of 9 µM.
As to `CCN1CCc2c([N+](=O)[O-])cc3[nH]c(=O)c(=O)[nH]c3c2C1`, the IC50 worked out at 1.4 µM in [1]; 7 µM in experiment [8]; 7 µM in experiment [9]; 0.7 µM in [2]; 0.166 µM in experiment [3]; 0.7 µM in experiment [4]. Also, the IC50 in experiment [5] is 6 µM; in experiment [6], 0.52 µM; in experiment [7], 6 µM.
On to `CCCN1CCc2c(c([N+](=O)[O-])cc3[nH]c(=O)c(=O)[nH]c23)C1`, for which the concentration for half-maximal inhibition (IC50) was 20 µM in [1], 2.8 µM in [3] and 1.7 µM in experiment [6].
In the case of `CC(=O)Nc1cc2[nH]c(=O)c(=O)[nH]c2c2c1CCN(C)C2`, the IC50 in experiment [1], in experiment [3] and in experiment [6] was above 100 µM each time.
Turning to `CCC(C)CN1CCc2c(c([N+](=O)[O-])cc3[nH]c(=O)c(=O)[nH]c23)C1` (configuration not stated), the IC50 in experiment [1] is above 100 µM; in [3], 1.3 µM; in [6] it was 15 µM.
For `CN1CCc2ccc3[nH]c(=O)c(=O)[nH]c3c2C1` the same measures were above 100 µM, 18 µM and 71.2 µM.
For `CN1CCc2c(c(C(=O)O)cc3nc(O)c(O)nc23)C1`, the IC50 in experiment [3] turned out to be 56 µM; in experiment [6] it was 36 µM.
The compound `O=c1[nH]c2cc(-n3ccnc3)c([N+](=O)[O-])cc2[nH]c1=O` [YM-90K] showed an IC50 in experiment [3] of 0.2 µM.
For the compound `CN1CCc2c(c(S(=O)(=O)c3ccccc3)cc3nc(O)c(O)nc23)C1`, the IC50 in experiment [3] was determined as 96 µM; in experiment [6], 72 µM.
Regarding `CCc1cnc2c(O)nc3cc([N+](=O)[O-])c(-n4ccnc4)cc3n12`, the IC50 in [3] was determined as 0.02 µM.
In the case of `Cc1cc2[nH]c(=O)c(=O)[nH]c2c2c1CN(C)CC2`, the IC50 in experiment [1] is above 10 µM; in experiment [3] it was 17.6 µM; in experiment [6], 6.7 µM.
Compound `CN1Cc2c(S(=O)(=O)N(C)C)cc3c(N=O)c(O)[nH]c3c2C1` gave an IC50 in experiment [3] of 0.6 µM.
As to `CN1CCc2c(c(Br)cc3[nH]c(=O)c(=O)[nH]c23)C1`, the half-inhibitory concentration (IC50) in experiment [1] amounted to 4.3 µM; in [3], 1.86 µM; in experiment [6], 1.76 µM.
With `CC(C)CCN1CCc2c(Br)cc3nc(O)c(O)nc3c2C1`, the IC50 in [1] was above 10 µM; in experiment [8] it was above 30 µM; in experiment [9], above 30 µM; in experiment [2], 16.5 µM; in [3] it was 9.7 µM; in [4], 16.5 µM. Besides, the figures for the IC50 in [5], in experiment [6] and in experiment [7] were above 30 µM, 0.68 µM and above 30 µM, respectively.
With `CN1CCc2c(c([N+](=O)[O-])cc3[nH]c(=O)c(=O)[nH]c23)C1`, the IC50 is 4.9 µM in experiment [1]; 9 µM in experiment [8]; 9 µM in experiment [9]; 1.8 µM in [2]; 0.29 µM in experiment [3]; 1.8 µM in experiment [4]. For the same compound, the IC50 worked out at 18 µM in [5], 0.38 µM in experiment [6] and 18 µM in [7].
Consider `CCN1CCc2c(c([N+](=O)[O-])cc3nc(O)c(O)nc23)C1`, for which the IC50 in experiment [1] turned out to be 5 µM; in [8], 26 µM; in [9] it was 26 µM; in [2] it was 14 µM; in experiment [3], 0.54 µM; in [4], 14 µM. Besides, the IC50 in experiment [5] was 25 µM; in experiment [6], 0.49 µM; in experiment [7], 25 µM.
For the compound `CCOC(=O)C(=O)N1CCCc2c1ccc1[nH]c(=O)c(=O)[nH]c21`, the values for the IC50 in experiment [1], in experiment [3] and in [6] were 50 µM, 13 µM and 20 µM, respectively.
For `CCC(C)CN1CCc2c(Br)cc3nc(O)c(O)nc3c2C1` (configuration not stated), the IC50 in experiment [1] was above 100 µM; in experiment [8], above 30 µM; in [9], above 30 µM; in experiment [2], above 30 µM; in experiment [3], above 100 µM; in [4], above 30 µM. Further, the concentration for half-maximal inhibition (IC50) was above 30 µM in [5], 2.9 µM in experiment [6] and above 30 µM in [7].
For `O=c1[nH]c2ccc3c(c2[nH]c1=O)NCCC3`, the IC50 in experiment [1] is 1.3 µM; in experiment [3], 2.2 µM; in experiment [6] it was 11 µM.
Take `COC(=O)CC1c2ccc(Cl)cc2NC(=O)C1[N+](=O)[O-]` (configuration not stated): in experiment [3], the IC50 came to 139 µM.
On to `CCCCCCCN1CCc2c(ccc3[nH]c(=O)c(=O)[nH]c23)C1`, for which the IC50 in [1] was above 100 µM; in experiment [3] it was above 100 µM; in [6], 45 µM.
`O=C(NS(=O)(=O)c1ccccc1)c1nc2cc(Cl)c(Cl)cc2[nH]c1=O`: the IC50 in [3] amounted to 4.3 µM.
`CN1CCc2c(Br)cc3[nH]c(=O)c(=O)[nH]c3c2C1`: the IC50 in experiment [1] came to 4 µM; in experiment [3], 2.84 µM; in experiment [6] it was 2.83 µM.
In the case of `Oc1nc2ccc3c(c2nc1O)CCCN3`, the IC50 in experiment [3] came to 24 µM; in [6], 8.9 µM.
Turning to `CCC(C)CN1CCc2c([N+](=O)[O-])cc3[nH]c(=O)c(=O)[nH]c3c2C1` (configuration not stated), the IC50 in [1] came out at 1.3 µM; in experiment [8], 11 µM; in [9] it was 11 µM; in [3] it was 0.28 µM; in experiment [5], 8 µM; in [6], 0.28 µM. The compound also gave an IC50 in [7] of 8 µM.
Turning to `CCCN1CCc2c(c(Br)cc3nc(O)c(O)nc23)C1`, the results for the IC50 in [1], in experiment [3] and in experiment [6] were above 10 µM, 1.1 µM and 6.4 µM, respectively.
As to `CCC(C)CN1CCc2c(ccc3nc(O)c(O)nc23)C1` (configuration not stated), the IC50 was above 100 µM in experiment [1], above 100 µM in experiment [3] and 48 µM in experiment [6].
As for `CCN1CCc2c(c(Br)cc3[nH]c(=O)c(=O)[nH]c23)C1`, the values for the IC50 in [1], in experiment [3] and in experiment [6] were 267 µM, 1.3 µM and 14 µM, respectively.
